Experimental data taken from US10245249B2, “Pharmaceutical compositions comprising nitroxyl donors” (Cardioxyl Pharmaceuticals, Inc., priority 2013, dated 2019).
Where “and” joins values, the source holds several entries; their conditions need not be identical. Identical values can stand only once.

Experiments:
[1] = Concentrate storage stability, compound of formula (2) 30 mg/mL in 30% CAPTISOL pH 4.0 (Example 8); assay type: physicochemical; design: key to Appearance 0 h / Appearance 24 h / Appearance 72 h / Appearance 168 h: the term “c/c” refers to clear and colorless; settings: for Concentration, mg/mL 0 h / Concentration, mg/mL 24 h / Concentration, mg/mL 72 h / Concentration, mg/mL 168 h: 30 mg/mL concentrate in 30% CAPTISOL pH 4.0; for Appearance 0 h / Appearance 24 h / Appearance 72 h / Appearance 168 h / Observed Degradant, Compound of Formula (101), mg/mL 0 h / Observed Degradant, Compound of Formula (101), mg/mL 24 h / Observed Degradant, Compound of Formula (101), mg/mL 72 h / Observed Degradant, Compound of Formula (101), mg/mL 168 h / pH 0 h / pH 24 h / pH 72 h / pH 168 h: concentrate
Protocol: The storage stability of a liquid concentrate of the Compound of formula (2) (30 mg/mL) in the vehicle 30% CAPTISOL® (w/v) at pH 4.0, was assessed at 4° C. and 25° C. over 7 days, with time points after 1, 3 and 7 days. At each time point samples were assessed for visual appearance, pH, and concentration and purity by HPLC (XBridge Phenyl Column (Waters); UV absorbance detector at 272 nm; mobile phase a step gradient of aqueous acetonitrile containing 0.1% (v/v) formic acid).
The selected vehicle, CAPTISOL® (30% w/v) in water with pH adjusted to 4.0, was prepared by accurately weighing 30 grams of CAPTISOL® into a 150 mL beaker and dissolved with 45 mL of water. The pH was adjusted to pH 4.0 by addition of 0.1N HCl. Subsequently, the vehicle was transferred to a volumetric flask and brought to 100 mL final volume by addition of water. After incubation at a temperature of about 25° C. for 30 minutes, the pH of the vehicle was re-adjusted to pH 4.0 by addition of 0.1N HCl. The vehicle formed a clear, colorless solution.
A concentrated solution of the compound of formula (2) was prepared as follows. A stir bar and 30 mL of vehicle were added to a 150 mL beaker. Approximately […] of the compound of formula (2) was dispensed and transferred to the beaker under low to medium stirring. After 45 minutes of stirring at a temperature of about 25° C. (protected from light), the concentrate formed a clear, colorless solution with some small, white clumps of the compound of formula (2) floating in solution. The remaining clumps were gently broken-up using a spatula. Following an additional 45 minutes of stirring, the concentrate formed a clear, colorless solution without any visible solids. The concentrate was then filtered (0.2 μm) through a 0.22 μm PVDF syringe filter.
For t=0 h testing, aliquots were distributed into vials and analyzed by HPLC (XBridge Phenyl Column (Waters); UV absorbance detector at 272 nm; mobile phase a step gradient of aqueous acetonitrile containing 0.1% (v/v) formic acid) and the sample pH was determined. Twelve aliquots of 1 mL of the concentrate were distributed into microcentrifuge tubes for storage at 4° C. and 25° C. After approximately 24, 72 and 168 hours of storage, two aliquots were removed from each storage condition and assessed for visual appearance, pH, and concentration and purity by HPLC. […] The pH of the samples stored at 4° C. and 25° C. decreased from 3.7 to 3.6 and 3.3, respectively, over the 7 days. In Table 12, the term “c/c” refers to clear and colorless.

healthy volunteers = test: 24-hour continuous infusion dose escalation safety study in healthy volunteers; assay type: in vivo, human
Protocol: To determine whether a local phlebitis would occur in humans upon longer duration dosing, a longer duration study was conducted in healthy volunteers. The longer duration study included a dose escalation study in which cohorts of 10 volunteers were to be sequentially administered a 24-hour continuous infusion of CXL-1020 at the dose rates of 10, 20, and 30 μg/kg/min with a safety assessment between each cohort. Each cohort consisted of 2 placebo and 8 active treatments with a sentinel pair of 1 active and 1 placebo followed by the main group of 1 placebo and 7 active treatments. The infusion was via a percutaneous catheter inserted into a forearm vein. The catheter was switched to the contralateral arm after 12 hours of infusion.

CS(=O)(=O)c1cccc(S(=O)(=O)NO)c1 [Compound 2, N-Hydroxy-3-methanesulfonylbenzene-1-sulfonamide]
concentration sustained ([1]; 4° C. and 25° C., over 7 days): 30000 µg/mL | known degradant (compound of formula (101)) ([1]; 4° C. and 25° C., over 7 days): No detectable levels | visual appearance of all samples ([1]; 4° C. and 25° C., over 7 days): clear, colorless solutions | Concentration, mg/mL 0 h ([1]; 4° C.): 30.3 mg/mL | Concentration, mg/mL 24 h ([1]; 4° C.): 30.6 mg/mL and 30.2 mg/mL | Concentration, mg/mL 72 h ([1]; 4° C.): 29.6 mg/mL and 29.4 mg/mL | Concentration, mg/mL 168 h ([1]; 4° C.): 29.7 mg/mL and 29.9 mg/mL | Appearance 0 h ([1]; 4° C.): c/c | Appearance 24 h ([1]; 4° C.): c/c | Appearance 72 h ([1]; 4° C.): c/c | Appearance 168 h ([1]; 4° C.): c/c | Observed Degradant, Compound of Formula (101), mg/mL 0 h ([1]; 4° C.): No | Observed Degradant, Compound of Formula (101), mg/mL 24 h ([1]; 4° C.): No | Observed Degradant, Compound of Formula (101), mg/mL 72 h ([1]; 4° C.): No | Observed Degradant, Compound of Formula (101), mg/mL 168 h ([1]; 4° C.): No | pH 0 h ([1]; 4° C.): 3.7 and 3.71 | pH 24 h ([1]; 4° C.): 3.70 | pH 72 h ([1]; 4° C.): 3.66 | pH 168 h ([1]; 4° C.): 3.6 and 3.61 and 3.58 | Concentration, mg/mL 0 h ([1]; 25° C.): 30.3 mg/mL | Concentration, mg/mL 24 h ([1]; 25° C.): 30.2 mg/mL | Concentration, mg/mL 72 h ([1]; 25° C.): 29.4 mg/mL and 29.8 mg/mL | Concentration, mg/mL 168 h ([1]; 25° C.): 29.5 mg/mL and 29.4 mg/mL | Appearance 0 h ([1]; 25° C.): c/c | Appearance 24 h ([1]; 25° C.): c/c | Appearance 72 h ([1]; 25° C.): c/c | Appearance 168 h ([1]; 25° C.): c/c | Observed Degradant, Compound of Formula (101), mg/mL 0 h ([1]; 25° C.): No | Observed Degradant, Compound of Formula (101), mg/mL 24 h ([1]; 25° C.): No | Observed Degradant, Compound of Formula (101), mg/mL 72 h ([1]; 25° C.): No | Observed Degradant, Compound of Formula (101), mg/mL 168 h ([1]; 25° C.): No | pH 0 h ([1]; 25° C.): 3.71 | pH 24 h ([1]; 25° C.): 3.47 and 3.48 | pH 72 h ([1]; 25° C.): 3.34 | pH 168 h ([1]; 25° C.): 3.3 and 3.32

CS(=O)(=O)c1ccccc1S(=O)(=O)NO [CXL-1020, N-hydroxy-2-methanesulfonylbenzene-1-sulfonamide, reference compound]
tolerability (healthy volunteers; 10 μg/kg/min for 24-hours): well tolerated | adverse findings (healthy volunteers; 20 μg/kg/min for 24-hours): mild findings (either clinical signs and/or changes in clinical pathology) in all 8 subjects consistent with infusion site phlebitis
